This passage reports inhibition results from ChEMBL document CHEMBL1131866, “Stereoisomeric acylamidomorpholinium carnitine analogues: selective inhibitors of carnitine palmitoyltransferase I and II” (Bioorg Med Chem Lett, 1999).

In this assay the target is T1, Carnitine O-palmitoyltransferase 2, mitochondrial (Rattus norvegicus) (UniProt P18886).
T1 sequence (whole entry): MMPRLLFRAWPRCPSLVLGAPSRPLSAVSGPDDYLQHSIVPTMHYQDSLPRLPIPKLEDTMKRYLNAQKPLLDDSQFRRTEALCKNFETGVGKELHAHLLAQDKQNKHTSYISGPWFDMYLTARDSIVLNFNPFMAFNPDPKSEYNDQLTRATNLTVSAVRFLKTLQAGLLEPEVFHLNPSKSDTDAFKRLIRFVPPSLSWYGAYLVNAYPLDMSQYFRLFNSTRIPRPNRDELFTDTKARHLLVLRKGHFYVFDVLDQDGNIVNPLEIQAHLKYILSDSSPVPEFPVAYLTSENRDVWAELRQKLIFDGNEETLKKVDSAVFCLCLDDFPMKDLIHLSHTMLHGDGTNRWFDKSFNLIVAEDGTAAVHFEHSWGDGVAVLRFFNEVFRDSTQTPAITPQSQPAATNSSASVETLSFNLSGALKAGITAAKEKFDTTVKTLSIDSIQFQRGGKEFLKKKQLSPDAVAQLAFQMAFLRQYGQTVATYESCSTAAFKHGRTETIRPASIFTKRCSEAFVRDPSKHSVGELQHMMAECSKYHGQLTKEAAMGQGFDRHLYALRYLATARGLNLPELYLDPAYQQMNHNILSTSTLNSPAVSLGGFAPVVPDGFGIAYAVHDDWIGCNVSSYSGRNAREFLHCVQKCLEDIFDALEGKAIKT
The assay is described as follows: Inhibitory activity against rat-liver mitochondrial Carnitine palmitoyl transferase II. To be noted: concentration not given here.

The inhibition is the drop in the measured response relative to a control, in per cent. The compound `CCCCCCCCCCCCCC(=O)NC[C@H]1C[N+](C)(C)C[C@@H](CC(=O)[O-])O1` showed an inhibition of 41%.
